Experimental data as given in patent publication US10556907B2 (AbbVie Inc., priority 2015, dated 2020).

How the values were obtained:
[1] = target: T1, human EDG3 (S1PR3) receptor (Homo sapiens, UniProt Q99500); experiment: Method 2: Aequorin assay, cell pool CHO-A2-S1P3 Mix; assay type: cell-based; details: (2): determined with method 2
T1 construct: expressed in transfected cells; host or cells: CHO (cell pool CHO-A2-S1P3 Mix)
Description: (§1) Agonistic activity was measured using two different methods, described below.
(§2) Genetically Engineered Cells
(§3) Cell clone CHO-A21-Edg1 #17 carries the transgenes human EDG1 (S1PR1) receptor (Accession number NP_001391.2), mitochondrially targeted Aequorin (active part corresponds to accession number 1SL8_A) and chimaeric Gaqi5=Gaq modified with the 5 C-terminal amino-acids replaced with those of the Gai protein (DCGLF). CHO-A2-S1P3 Mix is a cell pool ectopically expressing human EDG3 (S1PR3) receptor (Accession number NP_005217.2) mitochondrially targeted Aequorin (active part has a sequence similar to accession number AY601106.1) and GNA16 (Accession number NP_002059.3). Cell clone CHO-A21-EDG8 #12 carries the transgenes human EDG8 (S1PR5) receptor (Accession number NP_110387.1), mitochondrially expressed Aequorin (active part corresponds to accession number 1SL8_A) and chimaeric Gaqi5 (Gaq modified to present the 5 last amino-acids of the Gai protein “DCGLF”; see above). Cells are grown to mid-log phase in culture medium (HAM's F12, 10% FBS, 100 IU/mL penicillin, 100 μg/mL streptomycin, 250 μg/mL Zeocin, 400 μg/mL G418). 18 hours prior to frozen cells preparation, the medium is changed to remove the antibiotics.
(§4) 18 hours prior to the test, vials of frozen cells are quickly thawed in a 37° C. water bath, cells are recovered by centrifugation and resuspended in assay buffer (DMEM/HAM's F12 with HEPES, without phenol red+0.1% fatty acid-free BSA). Cells are gently agitated in suspension overnight at RT in presence of 5 μM of Coelenterazine h (Molecular Probes). On the day of the test, cells are diluted to their final working concentrations in assay buffer and agitated in suspension for 1 h at RT. Cells are then placed in the luminescence reader (Hamamatsu Functional Drug Screening System 6000, FDSS6000). During cells incubation, compounds are prepared in 100% DMSO, and subsequently diluted in assay buffer. Compounds are then dispensed in the assay plate (black, clear-bottom, 384-well plate). After binding of agonists to the human S1P receptor the intracellular calcium concentration increases and binding of calcium to the Aequorin/Coelenterazine complex leads to an oxidation reaction of coelenterazine, which results in the production of […], coelenteramide, CO2 and light (Dmax 469 nm). The luminescent response is dependent on the agonist concentration. For agonist testing, 30 μL of cell suspension are injected on 30 μL of test compound or reference agonist in the assay plate. The resulting emission of light is recorded for 90 seconds using the FDSS6000. Dose response curves with the reference compounds are performed before testing the compounds. S1P is the reference agonist and JTE-013 the reference antagonist for S1P2. […]
(§5) Luminescence data are integrated over the reading interval for agonist and antagonist modes. To standardize the emission of recorded light (determination of the “100% signal”) across plates and across different experiments, some of the wells contain 100 μM digitonin or a saturating concentration of ATP (20 μM). Plates also contain the reference agonist at a concentration equivalent to the EC80 obtained during the test validation and the EC100. Dose-response data from test compounds were analyzed with XLfit (IDBS) software using nonlinear regression applied to a sigmoidal dose-response model and the following equation: • XL Fit fit Model 203: 4 Parameter Logistic Model • A: Bottom • B: TOP • C: LogEC50 • D: Hill fit=(A+((B−A)/(1+(((10^C)/x)^D)))) inv=((10^C)/((((B−A)/(y−A))−1)^(1/D))) res=(y−fit)

human S1PR4 receptor = target: T2, human S1PR4 receptor (Homo sapiens, UniProt O95977); experiment: Method 1: intracellular Ca2+ release (FLIPR, Calcium 5) in recombinant CHO-K1 cells; assay type: cell-based; details: (1): determined with method 1; read-out: S1P4 EC50
T2 construct: host or cells: CHO-K1
T2 sequence (O95977 1-384): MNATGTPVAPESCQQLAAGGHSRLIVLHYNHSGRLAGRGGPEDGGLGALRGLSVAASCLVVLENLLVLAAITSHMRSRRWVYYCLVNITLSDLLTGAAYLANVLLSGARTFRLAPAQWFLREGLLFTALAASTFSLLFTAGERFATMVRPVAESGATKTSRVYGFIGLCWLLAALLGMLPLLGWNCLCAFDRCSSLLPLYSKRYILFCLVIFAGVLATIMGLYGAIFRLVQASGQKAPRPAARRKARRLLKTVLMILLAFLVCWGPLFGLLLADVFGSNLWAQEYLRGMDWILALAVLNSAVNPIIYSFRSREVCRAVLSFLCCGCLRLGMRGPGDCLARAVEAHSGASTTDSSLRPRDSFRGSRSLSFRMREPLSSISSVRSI
Summary of the method: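 Agonist EC50 values come from nonlinear fits of FLIPR Ca2+ fluorescence, normalized to the phospho-fingolimod reference curve. Recombinant CHO-K1 (receptor plus Gq/i5, aequorin) dye-loaded 1 h at 37° C in pH 7.4 Hepes/probenecid/BSA buffer. Antagonist mode: 10 min preincubation before phospho-fingolimod at EC80.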

[2] = target: T3, human EDG1 (S1PR1) receptor (Homo sapiens, UniProt P21453); experiment: Method 2: Aequorin assay, cell clone CHO-A21-Edg1 #17; assay type: cell-based; details: (2): determined with method 2; read-out: S1P1 EC50
T3 construct: expressed in transfected cells; host or cells: CHO (clone CHO-A21-Edg1 #17)
Description: as §1, §2, §3, §4, §5

[3] = target: T4, human EDG8 (S1PR5) receptor (Homo sapiens, UniProt Q9H228); experiment: Method 2: Aequorin assay, cell clone CHO-A21-EDG8 #12; assay type: cell-based; details: agonist potency, determined with method 2 (symbols E-G); read-out: S1P5 EC50 range
T4 construct: expressed in transfected cells; host or cells: CHO (clone CHO-A21-EDG8 #12)
Description: as §1, §2, §3, §4, §5

[4] = in vivo; cited from earlier work
monocytes = details: cited from earlier work
[5] = in vivo; cited from earlier work; remark: listed apart in the source

T4 sequence (Q9H228 whole entry): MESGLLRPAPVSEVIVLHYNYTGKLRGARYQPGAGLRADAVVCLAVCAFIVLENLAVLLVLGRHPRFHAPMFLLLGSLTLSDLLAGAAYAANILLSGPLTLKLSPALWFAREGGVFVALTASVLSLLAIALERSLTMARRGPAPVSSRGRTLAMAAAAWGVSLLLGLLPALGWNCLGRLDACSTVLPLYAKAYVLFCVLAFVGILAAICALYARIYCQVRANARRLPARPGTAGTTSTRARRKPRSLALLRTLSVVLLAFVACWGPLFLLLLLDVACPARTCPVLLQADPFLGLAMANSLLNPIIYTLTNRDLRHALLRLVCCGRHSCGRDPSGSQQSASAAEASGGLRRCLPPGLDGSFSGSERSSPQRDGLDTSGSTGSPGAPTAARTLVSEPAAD
T3 sequence (P21453 whole entry): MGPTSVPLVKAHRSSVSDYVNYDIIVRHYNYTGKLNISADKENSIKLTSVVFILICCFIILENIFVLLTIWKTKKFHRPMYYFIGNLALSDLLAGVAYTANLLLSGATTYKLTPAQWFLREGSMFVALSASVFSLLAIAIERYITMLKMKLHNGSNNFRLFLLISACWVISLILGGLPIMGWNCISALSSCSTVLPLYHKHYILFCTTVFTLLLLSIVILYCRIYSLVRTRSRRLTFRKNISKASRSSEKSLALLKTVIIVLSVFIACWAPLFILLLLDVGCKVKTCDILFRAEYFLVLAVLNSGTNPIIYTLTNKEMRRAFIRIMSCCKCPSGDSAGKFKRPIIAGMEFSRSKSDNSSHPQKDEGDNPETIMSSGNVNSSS
T1 sequence (Q99500 whole entry): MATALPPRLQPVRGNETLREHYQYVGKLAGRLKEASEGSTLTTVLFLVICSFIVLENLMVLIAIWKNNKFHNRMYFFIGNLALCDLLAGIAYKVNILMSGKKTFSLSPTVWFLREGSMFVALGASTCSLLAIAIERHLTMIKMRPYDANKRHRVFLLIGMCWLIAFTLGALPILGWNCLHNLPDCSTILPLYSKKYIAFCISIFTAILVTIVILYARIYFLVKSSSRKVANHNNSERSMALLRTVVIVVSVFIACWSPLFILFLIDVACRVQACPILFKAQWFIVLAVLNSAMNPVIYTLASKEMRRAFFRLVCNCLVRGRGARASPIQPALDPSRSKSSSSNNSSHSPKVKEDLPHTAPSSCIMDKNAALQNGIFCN

SMILES	EC50 [1]	EC50 (human S1PR4 receptor)	EC50 [2]	EC50 [3]	Aβ-induced memory deficits [4]	Aβ-induced migration of monocytes to sites of injury (monocytes)	nociceptive behavior in neuropathic pain models [5]
O=C(O)C1CC(N2CCc3nc(-c4ccc(OCc5cccc(F)c5)cc4)ncc3C2)C1 (centres unmarked) [Compound 52, 3-(2-(4-((3-fluorobenzyl)oxy)phenyl)-7,8-dihydropyrido[4,3-d]pyrimidin-6(5H)-yl)cyclobutanecarboxylic acid]	> 1 µM	> 1 µM	> 1 µM	1 to 10 µM	–	–	–
O=C(O)CCN1CCc2nc(-c3ccc(OCc4ccccc4F)cc3)ccc2C1 [Compound 132, 3-(2-(4-((2-fluorobenzyl)oxy)phenyl)-7,8-dihydro-1,6-naphthyridin-6(5H)-yl)propanoic acid]	> 1 µM	–	> 1 µM	< 0.1 µM	–	–	–
O=C(O)CCN1CCc2nc(-c3ccc(OCc4ccccc4)cc3F)ccc2C1 [Compound 134, 3-(2-(4-(benzyloxy)-2-fluorophenyl)-7,8-dihydro-1,6-naphthyridin-6(5H)-yl)propanoic acid]	> 1 µM	–	> 1 µM	< 0.1 µM	–	–	–
Cc1cc(OCc2ccccc2)ccc1-c1ccc2c(n1)CCN(CCC(=O)O)C2 [Compound 135, 3-(2-(4-(benzyloxy)-2-methylphenyl)-7,8-dihydro-1,6-naphthyridin-6(5H)-yl)propanoic acid]	> 1 µM	–	> 1 µM	1 to 10 µM	–	–	–
O=C(O)CCN1CCc2nc(-c3ccc(OCc4ccccc4)cc3C(F)(F)F)ccc2C1 [Compound 136, 3-(2-(4-(benzyloxy)-2-trifluoromethylphenyl)-7,8-dihydro-1,6-naphthyridin-6(5H)-yl)propanoic acid]	> 1 µM	–	> 1 µM	1 to 10 µM	–	–	–
O=C(O)CCN1CCc2nc(-c3ccc(OCc4ccccc4)c(F)c3)ccc2C1 [Compound 137, 3-(2-(4-(benzyloxy)-3-fluorophenyl)-7,8-dihydro-1,6-naphthyridin-6(5H)-yl)propanoic acid]	> 1 µM	–	> 1 µM	0.1 to 1 µM	–	–	–
COc1cc(OCc2ccccc2)ccc1-c1ccc2c(n1)CCN(CCC(=O)O)C2 [Compound 138, 3-(2-(4-(benzyloxy)-2-methoxyphenyl)-7,8-dihydro-1,6-naphthyridin-6(5H)-yl)propanoic acid]	> 1 µM	–	> 1 µM	1 to 10 µM	–	–	–
Cc1cc(-c2ccc3c(n2)CCN(CCC(=O)O)C3)ccc1OCc1ccccc1 [Compound 139, 3-(2-(4-(benzyloxy)-3-methylphenyl)-7,8-dihydro-1,6-naphthyridin-6(5H)-yl)propanoic acid]	> 1 µM	–	> 1 µM	0.1 to 1 µM	–	–	–
O=C(O)CCN1CCc2nc(-c3ccc(OCc4ccc(F)cc4)c(Cl)c3)ccc2C1 [Compound 140, 3-(2-(3-chloro-4-((4-fluorobenzyl)oxy)phenyl)-7,8-dihydro-1,6-naphthyridin-6(5H)-yl)propanoic acid]	> 1 µM	–	> 1 µM	0.1 to 1 µM	–	–	–
O=C(O)CCN1CCc2nc(-c3ccc(OCc4ccccc4F)c(Cl)c3)ccc2C1 [Compound 141]	> 1 µM	–	> 1 µM	0.1 to 1 µM	–	–	–
COc1cc(-c2ccc3c(n2)CCN(CCC(=O)O)C3)ccc1OCc1ccccc1 [Compound 142, 3-(2-(4-(benzyloxy)-3-methoxyphenyl)-7,8-dihydro-1,6-naphthyridin-6(5H)-yl)propanoic acid]	> 1 µM	–	> 1 µM	1 to 10 µM	–	–	–
O=C(O)CCN1CCc2nc(-c3ccc(OCc4ccccc4)c(C(F)(F)F)c3)ccc2C1 [Compound 143, 3-(2-(4-(benzyloxy)-3-trifluoromethylphenyl)-7,8-dihydro-1,6-naphthyridin-6(5H)-yl)propanoic acid]	> 1 µM	–	> 1 µM	0.1 to 1 µM	–	–	–
O=C(O)CCN1CCc2nc(-c3ccc(OCc4ccccc4)c(Cl)c3)ccc2C1 [Compound 144, 3-(2-(4-(benzyloxy)-3-chlorophenyl)-7,8-dihydro-1,6-naphthyridin-6(5H)-yl)propanoic acid]	> 1 µM	–	> 1 µM	0.1 to 1 µM	–	–	–
CC(CN1Cc2ccc(-c3ccc(OCc4ccccc4)cc3)nc2C1)C(=O)O (centres unmarked) [Compound 199, 3-(2-(4-(benzyloxy)phenyl)-5H-pyrrolo[3,4-b]pyridin-6(7H)-yl)-2-methylpropanoic acid]	> 1 µM	–	> 1 µM	1 to 10 µM	–	–	–
CC(CC(=O)O)N1Cc2ccc(-c3ccc(OCc4ccccc4)cc3)nc2C1 (centres unmarked) [Compound 200, 3-(2-(4-(benzyloxy)phenyl)-5H-pyrrolo[3,4-b]pyridin-6(7H)-yl)butanoic acid]	> 1 µM	–	> 1 µM	1 to 10 µM	–	–	–
O=C(O)CCN1Cc2ccc(-c3ccc(OCc4ccccc4)cc3)nc2C1 [Compound 202, 3-(2-(4-(benzyloxy)phenyl)-5H-pyrrolo[3,4-b]pyridin-6(7H)-yl)propanoic acid]	> 1 µM	–	> 1 µM	1 to 10 µM	–	–	–
CC(CN1CCc2cc(-c3ccc(OCc4ccccc4)cc3)nnc2C1)C(=O)O (centres unmarked) [Compound 206, 3-(3-(4-(benzyloxy)phenyl)-5,6-dihydropyrido[3,4-c]pyridazin-7(8H)-yl)-2-methylpropanoic acid]	> 1 µM	–	> 1 µM	0.1 to 1 µM	–	–	–
O=C(O)CCN1CCc2cc(-c3ccc(OCc4ccccc4)cc3)nnc2C1 [Compound 207, 3-(3-(4-(benzyloxy)phenyl)-5,6-dihydropyrido[3,4-c]pyridazin-7(8H)-yl)propanoic acid]	> 1 µM	–	> 1 µM	1 to 10 µM	–	–	–
CCCCCCCCc1ccc(CCC(N)(CO)CO)cc1 [FTY720/FIngolimod]	–	–	–	–	able to modulate Aβ-induced memory deficits	inhibits such migration	able to reduce nociceptive behavior
FC(F)(F)c1cccc(-c2noc(-c3cc(-c4ccccc4)c(C(F)(F)F)s3)n2)c1 [SEW2817]	–	–	–	–	–	–	fails to have an effect
